The subject of one data set is Candida albicans. In kind it is cell-based. The conditions noted are these: 24 h. The protocol:
(§1) Bacteria (S. aureus, P. aeruginosa, S. epidermidis, E. coli, K. pneumoniae, Enterococcus) and Candida albicans from ATCC were cultured in appropriate media, adjusted to 10^6 CFU/mL before testing. The bacteria and fungal, taken from a deep freezer, were revived by culturing them in a nutrient-rich medium, to grow and form distinct colonies. These colonies were then diluted with physiological saline to reach a turbidity equivalent to 0.5 McFarland, corresponding to a bacterial and fungal concentration of 10⁸ CFU/mL. This suspension was further diluted with 0.9% saline to achieve a concentration of 10⁶ CFU/mL. Subsequently, the bacterial and fungal suspension were diluted 100-fold in Brain-Heart Infusion (BHI) broth to achieve a final concentration of 10⁴ CFU/mL. This bacterial and fungal suspension were used to determine the MIC values in the experiments. Peptides (IND and IND-4,11K) were diluted by 2-fold serial dilution in the range of […] and tested in 96-well plates containing Muller-Hinton (MH) medium. After adding bacteria (10^4 CFU/mL), the samples were incubated at 37°C for 24 h. MIC was determined as the lowest peptide concentration at which no bacterial growth was observed by measuring the optical density OD620 nm. […] The positive controls were Streptomycin for Gram-negative bacteria and Penicillin for Gram-positive bacteria. The negative control was 1X PBS solution. The positive control for antifungal activity was Nystatin.All experiments were performed in triplicate.

The next data set relates to Enterococcus faecium. In kind it is cell-based. The conditions noted are these: 24 h. How it is done: as §1
For a further data set, the system named is Klebsiella pneumoniae. In kind it is cell-based. The conditions noted are these: 24 h. How it is done: as §1
In the next data set the test system is Pseudomonas aeruginosa. In kind it is cell-based. The conditions noted are these: 24 h. The protocol:
as §1

In data set [1] the test system is S. aureus, S. epidermidis, E. coli, K. pneumoniae, E. faecium, and P. aeruginosa. In kind it is cell-based. The conditions noted are these: Staphylococcus aureus, Staphylococcus epidermidis and Enterococcus faecium. How it is done:
as §1

The test system of a further data set is Staphylococcus aureus. In kind it is cell-based. The conditions noted are these: 24 h. How it is done:
as §1

For data set [2], the system named is Staphylococcus epidermidis. In kind it is cell-based. The conditions noted are these: 24 h. How it is done: as §1
Another data set deals with red blood cell. Briefly: Hemolysis assay. In kind it is cell-based. From the text: The hemolysis assay results indicated a concentration-dependent effect of the peptides on red blood cell membrane integrity.
For data set [3] the following is noted: 64 µM in PBS pH 7.4, 25, 45, 65, 85°C and 37°C, shaking 600 rpm, HPLC-DAD 280 nm, tryptophan internal standard, duplicate. The protocol: Peptides were dissolved in phosphate-buffered saline (PBS, pH 7.0) and 10% SDS solution. The peptide concentration was determined by direct weighing and mixing. The secondary structure was analyzed using a circular dichroism (CD) spectrometer. Peptides (64 µM) were dissolved in PBS (pH 7.4) with tryptophan as an internal standard. The solution was incubated at 25°C, 45°C, 65°C, and 85°C with shaking at 600 rpm. Peptide quantification was performed using HPLC-DAD at 280 nm with an injection volume of 20 µL. Each experiment was conducted in duplicate, and data were processed using Excel based on peak areas of tryptophan and peptide. Peptides (40 µM) were dissolved in PBS (pH 8.0) and incubated with 0.0005% trypsin at 37°C under shaking (600 rpm). Samples were collected at 0, 15, and 30 minutes and analyzed by HPLC-DAD at 280 nm with an injection volume of 40 µL [20, 21].

In another data set the test system is trypsin. Kind of data set: Enzymatic stability with trypsin. In kind it is in vitro ADME. The conditions noted are these: 40 µM in PBS pH 8.0, 0.0005% trypsin, 37°C, 600 rpm, 15 and 30 minutes, HPLC-DAD 280 nm, duplicate.
Setting [4] is: broth dilution, 96-well, MH medium, 10^4 CFU/mL, 37°C, OD620, triplicate.
[5] abbreviates: plated from MIC well and higher onto MH agar, triplicate.

≈ marks a conversion by molar mass, not a printed value. Like-named read-outs stand apart in the source and are kept apart here. Ends that are not written are not given here.

Regarding `CC[C@H](C)[C@H](N)C(=O)N[C@@H](CC(C)C)C(=O)N1CCC[C@H]1C(=O)N[C@@H](Cc1c[nH]c2ccccc12)C(=O)N[C@@H](CCCCN)C(=O)N[C@@H](Cc1c[nH]c2ccccc12)C(=O)N1CCC[C@H]1C(=O)N[C@@H](Cc1c[nH]c2ccccc12)C(=O)N[C@@H](Cc1c[nH]c2ccccc12)C(=O)N1CCC[C@H]1C(=O)N[C@@H](Cc1c[nH]c2ccccc12)C(=O)N[C@@H](CCCNC(=N)N)C(=O)N[C@@H](CCCNC(=N)N)C(N)=O` [IND, Indolicidin], the minimum inhibitory concentration (MIC) (usually the smallest concentration in the dilution series that meets the test's criterion for growth inhibition) in the data set with Candida albicans (setting [4]) is recorded as 64 µM (≈ 122 µg/mL); in the data set with Enterococcus faecium (setting [4]), 32 µM (≈ 61 µg/mL); in the data set on Klebsiella pneumoniae (setting [4]), above 128 µM; against Pseudomonas aeruginosa (setting [4]), above 128 µM; in the data set on Staphylococcus aureus (setting [4]), 64 µM (≈ 122 µg/mL); in [2] (setting [4]), 8 µM (≈ 15.3 µg/mL). Moreover, the MBC is on record as above 128 µM in the data set with Candida albicans (setting [5]); 32 µM (≈ 61 µg/mL) against Enterococcus faecium (setting [5]); above 128 µM in the data set with Klebsiella pneumoniae (setting [5]); above 128 µM in the data set with Pseudomonas aeruginosa (setting [5]); 64 µM (≈ 122 µg/mL) with Staphylococcus aureus (setting [5]); 8 µM (≈ 15.3 µg/mL) in [2] (setting [5]). Also, the “MIC (range over organisms)” value in data set [1] lay in the range of 8 to 64 µM. The Hemolysis activity came to 3.04 ± 0.29% in the data set with red blood cell (peptide 2 uM); 2.51 ± 0.24% with red blood cell (peptide 4 uM); 3.05 ± 0.34% with red blood cell (peptide 8 uM); 4.89 ± 0.03% with red blood cell (peptide 16 uM); 10.33 ± 1.06% in the data set with red blood cell (peptide 32 uM); 18.09 ± 1.57% in the data set on red blood cell (peptide 64 uM). In the data set on red blood cell (peptide 128 uM), this compound showed a Hemolysis activity of 30.91 ± 2.27%. In addition, the “Thermal stability (retention time and peak area)” value in data set [3] was “remained largely unchanged”. Also, in the data set on trypsin, the “Enzymatic stability with trypsin” value is given as “significant degradation”.

On to ILKWKWPWWKWRR-NH2 [IND-4,11K], for which the MBC against Candida albicans was 32 µM; against Enterococcus faecium it was 32 µM; with Klebsiella pneumoniae, 128 µM; against Pseudomonas aeruginosa, 128 µM; in the data set on Staphylococcus aureus it was 48 µM; in data set [2] it was 8 µM. Also, the minimum inhibitory concentration (MIC) was determined as 32 µM against Candida albicans; 32 µM in the data set with Enterococcus faecium; 128 µM in the data set on Klebsiella pneumoniae; 128 µM with Pseudomonas aeruginosa; 48 µM with Staphylococcus aureus; 8 µM in [2]. For the same compound, the “Thermal stability (retention time and peak area)” value in data set [3] is “remained largely unchanged”. Moreover, the “Enzymatic stability with trypsin” value in the data set on trypsin is on record as “significant degradation”.

(Values after article PMC12412968, “Indolicidin derivatives as potent dual-action antifungal and antibacterial agents for the treatment of skin infections: A comprehensive study from in vitro to in vivo evaluation” (PLOS One, 2025).)
